Reference: publication PMC9699003, “Arene Variation of Highly Cytotoxic Tridentate Naphthoquinone-Based Ruthenium(II) Complexes and In-Depth In Vitro Studies” (Pharmaceutics, 2022)

Columns and labels:
[1] = tested on: A549 non-small cell lung cancer cells; settings: A549, MTT, 96 h exposure; cited from earlier work
CH1/PA-1 cells = test: DCFH-DA assay (ROS levels); format: cell-based, human; settings: CH1/PA-1, DCFH-DA, up to 2 h
[2] = tested on: SW480 colon carcinoma cells; settings: SW480, MTT, 96 h exposure; cited from earlier work
pUC19 plasmid = tested on: pUC19 plasmid; design: method as in PMID 34115482; settings: cited from earlier work

Row | SMILES | IC50 [1] | ROS level, T/C (treated vs negative control) (CH1/PA-1 cells) | IC50 [2] | Influence on pUC19 (in words) (pUC19 plasmid)
1 | CC1=C([O-])C([O-])(n2cccn2)c2ccccc2C1=O.Cc1ccc(C(C)C)cc1.[Ru+2] (racemic) [Compound 1] | 1.2 ± 0.2 µM | ≈ 0.5 | 0.094 ± 0.031 µM | only a minor influence on pUC19
2 | CC1=C(O)C(=O)c2ccccc2C1=O [L, 2-Hydroxy-3-methyl-1,4-naphthoquinone] | 210 ± 32 µM | – | 116 ± 37 µM | only a minor influence on pUC19
